Data from patent US4117164A, “Aminomethyl-benzocycloheptenes and method of use” (Roussel Uclaf, priority 1976, dated 1978).
Where a name gives a salt, the structure may show the parent alone.

Columns and labels:
serotonine (5HT) uptake = experiment: Inhibition of serotonine (5HT) uptake in vitro in impure brain synaptosomes; assay type: biochemical; settings: synaptosomes from entire brain of female rat 19 to 21 days old, 14C-5HT 10^-7 M, 37° C., 5 minutes; read-out: I.C. 50, 50% inhibiting concentration of 14C-5HT uptake
Protocol: The inhibition of serotonine (5HT) uptake was measured in impure synaptosomes prepared from the entire brain of a female rat 19 to 21 days old using the technique of Kannengiesser et al [Biochemical Pharmacology, Vol. 22, (1973) p. 73].

[1] = Acute toxicity, intraperitoneal; settings: mouse, in vivo, ip; mice, i.p., determined 48 hours later; read-out: DL50 dose which kills 50% of mice
Protocol: The DL50 dose which kills 50% of mice after intraperitoneal administration of the tested compound was determined 48 hours later and the DL50 for the compounds is reported in Table III.

effects of L-dopa = experiment: Potentiation of effects of L-dopa in mice pretreated with iproniazide; assay type: in vivo; settings: Mus musculus, ip, one hour before L-dopa 100 mg/kg i.p.; male mice, iproniazide 75 mg/kg i.p. 18 hours before; read-out: ED50 dose which potentiates by 50% the L-dopa effects
Protocol: The administration of L-dopa to mice pretreated 18 hours previously with iproniazide produced certain number of symptoms; muscular hypertonicity, hyperactivity, agitation crying, aggressiveness, salivation and exophthalmy. The intensity of these effects is potentiated by administration of an antidepressant one hour before the administration of L-dopa. Male mice received intraperitoneally 75 mg/kg of iproniazide 18 hours before the start of the test and the tested product was intraperitoneally administered in aqueous solution in increasing doses. One hour later, L-dopa was intraperitoneally administered at a dose of 100 mg/kg and the different symptoms were observed 15 and 30 minutes later. They were evaluated on a scale of 0 to 3 for each animal and the totals for each dose were determined.

[2] = tested on: effects of monoamine oxidase inhibitor (nialamide); experiment: Potentiation of effects of monoamine oxidase inhibitor (nialamide) in mice, actimetric measurements; assay type: in vivo; parameters: key: Potentiation of the effects of nial amide for the tested product was expressed in increasing number of + sign for a determined dose in mg/kg; settings: nialamide 100 mg/kg i.p. 30 minutes before, actimetric values every 30 minutes for 6 hours
Excerpt: The administration of a monoamine oxidase inhibitor to mice induces a hyperactive movement of the animals which is able to be potentiated by an antidepressant. […] Potentiation of the effects of nial amide for the tested product was expressed in increasing number of + sign for a determined dose in mg/kg.

CNCC1C=Cc2cc(N)ccc2CC1 (stereo not drawn) [Example 4, di-(N-methyl-2-amino-6,7-dihydro [5H]benzocycloheptene-7-methanamine) fumarate]
IC50 (serotonine (5HT) uptake): 6800 nM
LD50 at 48 h [1]: 100 mg/kg

CNCC1C=Cc2cc([N+](=O)[O-])ccc2CC1 (stereo not drawn) [Example 3, N-methyl-2-nitro-6,7-dihydro [5H] benzocycloheptene-7-methanamine hydrochloride]
ED50 (effects of L-dopa): 20 mg/kg
IC50 (serotonine (5HT) uptake): 590 nM
Potentiation of Nialamide ([2]; 20 mg/kg i.p.): +
LD50 at 48 h [1]: 100 mg/kg

CNCC1C=Cc2cc(O)ccc2CC1.Cl (stereo not drawn) [Example 6, 7-methylaminomethyl-6,7-dihydro [5H] benzocycloheptene-2-ol-hydrochloride]
ED50 (effects of L-dopa): 20 mg/kg
IC50 (serotonine (5HT) uptake): 980 nM
Potentiation of Nialamide ([2]; 5 mg/kg i.p.): +
Potentiation of Nialamide ([2]; 20 mg/kg i.p.): +
LD50 at 48 h [1]: 75 mg/kg

CNCC1C=Cc2cc(OC)ccc2CC1.Cl (stereo not drawn) [Example 5, N-methyl-2-methoxy-6,7-dihydro [5H] benzocycloheptene-7-methanamine hydrochloride]
ED50 (effects of L-dopa): 50 mg/kg
IC50 (serotonine (5HT) uptake): 1400 nM
LD50 at 48 h [1]: 100 mg/kg

CN(C)CC1C=Cc2cc([N+](=O)[O-])ccc2CC1 (stereo not drawn) [1 - 2]
IC50 (serotonine (5HT) uptake): 630 nM
Potentiation of Nialamide ([2]; 5 mg/kg i.p.): +
Potentiation of Nialamide ([2]; 20 mg/kg i.p.): +
LD50 at 48 h [1]: 150 mg/kg
